Test results: PubChem BioAssay (NCI)
Several values for one entry are separate records, joined by “and”; a condition that tells them apart may be missing. Equal values may be shown once.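 Five concentrations, 48 hours, 96-well plates. GI50 is the concentration that inhibits growth by half. TGI is the concentration that stops growth completely.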

Columns and labels:
Assay in all cases: growth of human tumour cells (NCI), 48 h
[1] = tested on: MOLT-4 leukemia
[2] = tested on: SK-MEL-2 melanoma
[3] = tested on: UO-31 renal
[4] = tested on: SN12C renal
[5] = tested on: DU-145 prostate
[6] = tested on: PC-3 prostate
[7] = tested on: OVCAR-4 ovarian
[8] = tested on: OVCAR-5 ovarian
[9] = tested on: A549 NSCLC
[10] = tested on: SF-295 CNS
[11] = tested on: BT-549 breast
[12] = tested on: EKVX NSCLC
[13] = tested on: 786-0 renal
[14] = tested on: MCF7 breast
[15] = tested on: NCI/ADR-RES ovarian
[16] = tested on: A498 renal
[17] = tested on: NCI-H226 lung
[18] = tested on: CCRF-CEM leukemia
[19] = tested on: HCT-15 colon
[20] = tested on: SF-539 CNS
[21] = tested on: UACC-62 melanoma
[22] = tested on: MDA-N
[23] = tested on: HL-60(TB) leukemia
[24] = tested on: UACC-257 melanoma
[25] = tested on: NCI-H460 lung
[26] = tested on: KM12 colon
[27] = tested on: TK-10 renal
[28] = tested on: MALME-3M melanoma
[29] = tested on: SNB-75 CNS
[30] = tested on: SK-MEL-5 melanoma
[31] = tested on: ACHN renal
[32] = tested on: SNB-19 CNS
[33] = tested on: LOX IMVI melanoma
[34] = tested on: MDA-MB-231 breast
[35] = tested on: SF-268 CNS
[36] = tested on: U251 CNS
[37] = tested on: NCI-H23 lung
[38] = tested on: HCC-2998 colon
[39] = tested on: SR leukemia
[40] = tested on: MDA-MB-435
[41] = tested on: HS 578T breast
[42] = tested on: HT29 colon
[43] = tested on: SK-MEL-28 melanoma
[44] = tested on: OVCAR-3 ovarian
[45] = tested on: K-562 leukemia
[46] = tested on: NCI-H522 lung
[47] = tested on: CAKI-1 renal
[48] = tested on: HOP-62 NSCLC
[49] = tested on: COLO 205 colon
[50] = tested on: SW-620 colon
[51] = tested on: OVCAR-8 ovarian
[52] = tested on: IGROV1 ovarian
[53] = tested on: RPMI-8226 leukemia
[54] = tested on: SK-OV-3 ovarian
[55] = tested on: M14 melanoma

What does the source list for `O=C1NC(c2cccc3ccccc23)Nc2ccccc21` (centres undefined)?
GI50 [1]: 0.0443 µM; TGI [2]: 7.5 µM and > 20.2 µM; GI50 [3]: 0.0362 µM; TGI [3]: > 100 µM; GI50 [4]: 0.0198 µM; TGI [4]: > 100 µM; GI50 [5]: 0.046 µM; TGI [5]: 8.11 µM; GI50 [6]: 0.0263 µM; TGI [6]: 0.213 µM; GI50 [7]: 0.166 µM; TGI [7]: > 100 µM; TGI [8]: > 65.3 µM; GI50 [9]: 0.0582 µM; TGI [9]: > 100 µM; GI50 [10]: 0.0592 µM; TGI [10]: 0.894 µM; TGI [11]: > 100 µM; GI50 [12]: 0.0278 µM; TGI [12]: > 100 µM; GI50 [13]: 0.0254 µM; TGI [13]: > 100 µM; GI50 [14]: 0.284 µM; TGI [14]: 2.56 µM; TGI [15]: 0.0707 µM and 0.0715 µM; TGI [16]: 0.0848 µM; GI50 [17]: 0.0238 µM; GI50 [18]: 0.0296 µM; TGI [18]: 0.538 µM; TGI [19]: 2.28 µM and 2.17 µM; GI50 [20]: 0.0105 µM; TGI [20]: 0.0329 µM and 0.165 µM; TGI [21]: > 100 µM; TGI [22]: 0.00629 µM and 0.0586 µM; GI50 [23]: 0.00675 µM; TGI [23]: 0.0391 µM and 0.0342 µM; TGI [24]: 32.6 µM; GI50 [25]: 0.0405 µM; TGI [25]: 0.73 µM and 4.89 µM; TGI [26]: 5.91 µM and 10.4 µM; GI50 [27]: 0.0545 µM; TGI [27]: > 68 µM; GI50 [28]: 0.0263 µM; TGI [28]: 43.7 µM; TGI [29]: 35.9 µM; GI50 [30]: 0.00988 µM; GI50 [31]: 0.0383 µM; TGI [31]: > 54.7 µM; GI50 [32]: 0.0554 µM; TGI [32]: > 100 µM; GI50 [33]: 0.0389 µM; TGI [33]: > 96.7 µM; TGI [34]: 3.03 µM; GI50 [35]: 0.0485 µM; TGI [35]: > 100 µM; GI50 [36]: 0.0259 µM; TGI [36]: 0.3 µM and 0.83 µM; GI50 [37]: 0.0262 µM; TGI [37]: 24.8 µM; GI50 [38]: 0.173 µM; TGI [38]: 0.743 µM and 0.489 µM; GI50 [39]: 0.0106 µM; TGI [40]: 0.0068 µM; TGI [41]: 92.2 µM; GI50 [42]: 0.0256 µM and 0.0306 µM; TGI [42]: 1.14 µM and 0.203 µM; TGI [43]: > 100 µM; GI50 [44]: 0.0215 µM; TGI [44]: 0.0568 µM and 0.0442 µM; GI50 [45]: 0.00758 µM; GI50 [46]: 0.0194 µM and 0.0497 µM; TGI [46]: 0.0765 µM and 0.25 µM; GI50 [47]: 0.0282 µM; TGI [47]: 1.82 µM; GI50 [48]: 0.0317 µM; TGI [48]: 29.6 µM; GI50 [49]: 0.027 µM; TGI [49]: 0.0954 µM; GI50 [50]: 0.0203 µM; TGI [50]: > 56.6 µM; GI50 [51]: 0.0783 µM; TGI [51]: 12 µM; GI50 [52]: 0.0636 µM; TGI [52]: > 100 µM; TGI [53]: 0.493 µM and 1.05 µM; GI50 [54]: 0.0316 µM; TGI [54]: 0.252 µM; GI50 [55]: 0.0177 µM; TGI [55]: 0.672 µM
